# Experiments:
# [1] = tested on: MCF-7 cells; conditions: cited from earlier work
# [2] = literature (Dávalos, 2004); cited from earlier work
# [3] = tested on: Human hormone dependent mammary cancer cells (MCF-7); experiment: MCF-7 growth inhibition bioassay of quercetin and flavonol-rich black bean extract; assay type: cell-based; conditions: quercetin alone
# Description: Human hormone dependent mammary cancer cells (MCF-7) were used to conduct bioassays to test growth inhibitory effects of commercially available quercetin alone and in presence of other flavonols and phytochemicals found in black bean extracts described in Table 2.
# [4] = tested on: hormone dependent mammary cancer cells MCF-7; experiment: MCF-7 proliferation in hormone-free serum, 13 days incubation; assay type: cell-based
# Procedure: Methanol extracts of raw and 5-day malted NG-Perla black beans were obtained by the methods described in Examples 2 and 8, respectively, and used to test their effects on hormone dependent mammary cancer cell proliferation (MCF-7).
# Since isoflavones found in black beans may show estrogenic activity, and MCF-7 are hormone dependent mammary cancer cells; tests were conducted in hormone-free serum to discard the possibility of enhanced proliferation instead of inhibition. […] Thus, MCF-7 cells were first cultured with purified commercial standards of genistein (Indofine Chemical Company, Hillsborough, N.J.) and genistin (Sigma-Aldrich Chem. Co., St. Louis, Mo.) as positive controls with the aim of testing their effects on proliferation of this cancer cell line.
structure (smiles),measurement,setting,value
O=c1c(O)c(-c2cc(O)c(O)c(O)c2)oc2cc(O)cc(O)c12 [myricetin],inhibition of MCF-7 cells,[1]; regular serum conditions,do not inhibit
O=C(O)/C=C/c1ccc(O)c(O)c1 [caffeic acid],antioxidant value,[2],6.63 TE
O=c1c(O)c(-c2ccc(O)c(O)c2)oc2cc(O)cc(O)c12 [Quercetin],inhibitory effect on MCF-7 growth,[3],did not have any inhibitory effect
same,antioxidant value,[2],10.5 TE
same,IC50,"[1]; regular serum conditions (Rodgers, 1998), read-out: concentration needed to inhibit 50% of MCF-7 cancer cells",≥ 200 µM
"COc1ccc(O)c(C(C)(C)C)c1 [BHA, butylated hydroxyanisole]",antioxidant value,[2],2.43 TE
O=c1c(-c2ccc(O)cc2)coc2cc(O)cc(O)c12 [genistein],IC50,"[4]; Homo sapiens, MCF7, 312 h, 13 days incubation, estimated by curve fit to FIG. 12, read-out: concentration required to lower the cell population doublings from 6 to 3 (50% inhibition)",18.5 µM
O=c1c(-c2ccc(O)cc2)coc2cc(O[C@@H]3O[C@H](CO)[C@@H](O)[C@H](O)[C@H]3O)cc(O)c12 [genistin],proliferation inhibition of MCF-7,[4]; even at concentrations higher than 20 μM,did not show proliferation inhibition

# Source: patent publication US7763292B2, “Cancer cell growth inhibition by black bean (Phaseolus vulgaris L) extracts” (Instituto Technologico y de Estudios Superiores de Monterrey, priority 2004, dated 2010)
